The results in this text go back to patent US20220016215A1, “GIP RECEPTOR AGONIST PEPTIDE COMPOUNDS AND USES THEREOF” (TAKEDA PHAARMACEUTICAL COMPANY LIMITED, priority 2018, published 2022).

One experiment concerns the target T1, human GIPR (Homo sapiens, UniProt P48546).
T1 construct: expressed in transfected cells
T1 sequence (P48546 22-466): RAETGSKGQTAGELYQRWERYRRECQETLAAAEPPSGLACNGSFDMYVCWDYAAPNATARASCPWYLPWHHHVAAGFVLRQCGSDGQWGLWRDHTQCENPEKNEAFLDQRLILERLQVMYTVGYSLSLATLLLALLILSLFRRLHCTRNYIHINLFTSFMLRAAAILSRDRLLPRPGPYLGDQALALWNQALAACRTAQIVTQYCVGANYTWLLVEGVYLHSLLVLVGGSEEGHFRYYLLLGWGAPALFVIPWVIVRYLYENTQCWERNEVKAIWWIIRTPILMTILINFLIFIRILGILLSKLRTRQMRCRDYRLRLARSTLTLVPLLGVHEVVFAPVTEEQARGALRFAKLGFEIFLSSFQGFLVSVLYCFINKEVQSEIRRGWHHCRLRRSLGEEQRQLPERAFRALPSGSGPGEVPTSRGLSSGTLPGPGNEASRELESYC
The experiment in a line: Agonist activity on human GIPR, CRE-luciferase reporter assay (increase in intracellular cAMP as indicator). It counts as cell-based. The conditions noted are these: for Selectivity Ratio (B/A): GLP1R EC50 / GIPR EC50. From the text:
The human GIPR gene having an identical sequence to Genebank Accession No. U39231 is cloned into a pMSRα-neo vector to prepare hGIPR/pMSRα-neo.
(2) Construction of Reporter Plasmid Expressing Cell
Luciferase reporter gene with a cAMP-responsive sequence located upstream is transferred to a CHO-K1 cell to construct a CRE-LUC/CHO-K1 cell.
(4) Transfer of Human GIPR Gene to CRE-LUC/CHO-K1 Cell and Obtaining of Expressing Cell
The plasmid hGIPR/pMSRα-neo obtained in (1) is transferred to the CRE-LUC/CHO-K1 cell obtained in (2) to obtain a transformant. Subsequently, the cell line inducing the luciferase expression, hGIPR/CRE-LUC/CHO-K1 cell, is selected from the obtained transformant by adding GIP.
25 μL each of the hGIPR/CRE-LUC/CHO-K1 cell is inoculated in a 384-well white plate (Corning) in such a way as to provide 5×10^3 cells/well and may be cultured in a HamF12 medium containing 10% fetal bovine serum, 100 U/mL penicillin, and 100 μg/mL streptomycin in a CO2 incubator at 37° C. overnight. 5 μL of a medium containing a test compound is added to the cells and incubated for 4 hours at the indicated concentration in a CO2 incubator at 37° C. Steady-Glo (Promega) is added in amounts of 30 μL and shaken under light shielding. Twenty minutes later, luciferase activity is measured using a plate reader Envision (PerkinElmer). The GIPR agonist activity is calculated with increase in intracellular cAMP concentration as the indicator when the luciferase activity in the presence of 10 nM of GIP was 100% and the luciferase activity in the case of adding DMSO instead of the test compound was 0%.
In general terms: Reporter assays use an easily measured gene product as a stand-in for the process of interest.

The test system of experiment [1] is morphine (0.6 mg/kg, s.c.)-induced emesis in ferrets. The experiment in a line: Morphine-induced acute emetic model in male ferrets. It counts as in vivo, ferret. Here is the method:
Example 6—In-Vivo Effect of GIP Receptor Agonist Peptides on Emesis in Morphine Induced Emesis Model in Live Male Ferrets
Effect of subcutaneously administered GIP receptor agonist peptide in morphine-induced acute emetic model.
To evaluate the antiemetic effect, the GIP receptor agonist peptides other than natural human GIP were subcutaneously administered into male ferrets 30 minutes before morphine administration. […]. Up to 60 minutes after morphine administration, the condition of the ferrets was monitored to record the frequencies and time points of abdominal contraction motions, vomiting behaviors, licking with the tongue, and fidgety behavior occurring
Effects of Subcutaneously Administered GIP Receptor Agonist Peptides in Morphine-Induced Acute Emetic Model
30 nmol/kg of Compounds 3 and 5 were dissolved with a vehicle (0.09 w/v % tween 80/10% DMSO/saline), respectively, to prepare test solutions. […] of the test solutions and the vehicle were subcutaneously administered to ferrets (4 in each group), respectively. At the time of each of 4 hours, after administration, 0.6 mg/kg of morphine was subcutaneously administered. […] See results in Tables 6, 7 and 8.
(§1) 10 nmol/kg of each compound dissolved with a vehicle (0.09 w/v % tween 80/10% DMSO/saline) respectively, to prepare test solutions. […] of the test solutions and the vehicle were subcutaneously administered to ferrets (4 in each group), respectively. At the time of each of 4 hours, or 120 hours after administration, 0.6 mg/kg of morphine was subcutaneously administered. Up to 360 minutes after morphine administration, the condition of the ferrets was monitored to record the frequencies and time points of abdominal contraction motions, vomiting behaviors, licking with the tongue, and fidgety behavior occurring.
as §1, with “30 nmol/kg” for “10 nmol/kg”, “80/10% DMSO/saline),respectively,” for “80/10% DMSO/saline) respectively,”

Setting [2] is: ferrets, 10 nmol/kg s.c., morphine administered 4 h after, cumulative total duration, individual animals and Mean.
Setting [3] is: ferrets, 10 nmol/kg s.c., morphine administered 4 h after, individual animals and Mean.
[4] abbreviates: ferrets, 10 nmol/kg s.c., morphine administered 4 h after, individual animals and Mean, no emetic response = 30 min.
The mark [5] stands for this setting: ferrets, 10 nmol/kg s.c., morphine administered 4 h after, individual animals and Mean, no response = 30 min.
Where [6] appears, read: ferrets, morphine 0.6 mg/kg s.c. 4 h after drug, 10 nmol/kg s.c.
The mark [7] stands for this setting: ferrets, morphine 0.6 mg/kg s.c. 4 h after drug, 10 nmol/kg s.c., non-responders counted as 30 min.

“And” between values parts separate entries of the source, which are not always exact repeats. Equal values may be shown once. Marks after values point to notes of the source that are not given here. Bounds are passed on as bounds.

On to “YAibEGTFISDYSIALDKIHQQ(Lys-(ethylene glycol)2-C15 diacid)FVNWLLAQRG-OH [Compound 24]”, for which the “Selectivity Ratio (B/A)” value on human GIPR is reported as 82783.

In the case of “YAibEGTFISDYSIALDKIHQQ(Lys-(ethylene glycol)2-C15 diacid)FVNWLLAQR-NH2 [Compound 28]”, the “Selectivity Ratio (B/A)” value on human GIPR is recorded as >100,000.

On to “YAibEGTFISDYSIELDK(Lys-(ethylene glycol)2-C15 diacid)AAQAFIEWLLAQGPSSGAPPPS-NH2 [Compound 20]”, for which the “Selectivity Ratio (B/A)” value on human GIPR was >100,000. Also, the “Retching Latency” value in experiment [1] (ferrets, 10 nmol/kg s.c., morphine (0.6 mg/kg, s.c.) administered 4 h after, individual animals and Mean, no emetic response = 30 min) is given as 30 min. In experiment [1] (setting [2]), the “Emesis (Retching + Vomiting) Duration” value was 0 min (4×) and 0.0 min; the “Retching Duration” value came out at 0 min; the “Vomiting Duration” value was 0 min. Moreover, in experiment [1] (setting [3]), the “Fidget Duration” value was 0 min (4×) and 0.0 min; the “Licking Duration” value is 0 min (4×) and 0.0 min; the “Retching Frequency” value worked out at 0; the “Vomiting Frequency” value is 0. In experiment [1] (setting [4]), the “Emesis (Retching + Vomiting) Latency” value stood at 30 min and the “Vomiting Latency” value was found to be 30 min. Besides, in experiment [1] (setting [5]), the “Fidget Latency” value is 30 min (4×) and 30.0 min; the “Licking Latency” value is 30 min (4×) and 30.0 min. Moreover, in experiment [1] (setting [6]), the “Emesis: Duration” value was determined as 0.0 ± 0.0 min, the “Emesis: Frequency” value was determined as 0.0 ± 0.0, the “Emesis: No. of animals (responder/used)” value is 0/4 # and the “Fidget: Duration” value is listed as 0.0 ± 0.0^ min. Besides, in experiment [1] (setting [6]), the “Fidget: Frequency” value is 0.0 ± 0.0, the “Fidget: No. of animals (responder/used)” value is given as 0/4 #, the “Licking: Duration” value is reported as 0.0 ± 0.0^ min and the “Licking: Frequency” value turned out to be 0.0 ± 0.0. In addition, in experiment [1] (setting [6]), the “Licking: No. of animals (responder/used)” value is recorded as 0/4 #, the “Retching: Duration” value is listed as 0.0 ± 0.0 min, the “Retching: Frequency” value was found to be 0.0 ± 0.0 and the “Retching: No. of animals (responder/used)” value is reported as 0/4 #. Also, in experiment [1] (setting [6]), the “Vomiting: Duration” value was 0.0 ± 0.0 min, the “Vomiting: Frequency” value was found to be 0.0 ± 0.0 and the “Vomiting: No. of animals (responder/used)” value was 0/4 #. Besides, in experiment [1] (setting [7]), the “Emesis: Latency” value stood at 30.0 ± 0.0 min, the “Fidget: Latency” value was determined as 30.0 ± 0.0 min, the “Licking: Latency” value turned out to be 30.0 ± 0.0 min and the “Retching: Latency” value amounted to 30.0 ± 0.0 min. Also, the “Vomiting: Latency” value in experiment [1] (setting [7]) was found to be 30.0 ± 0.0 min. The “Comment: Anti-Emetic Activity (inhibition) on morphine-induced emesis” value in experiment [1] (male ferrets, summary of the morphine experiments) came out at 100% inhibition.

As to “YD-AlaEGTFISDYSIAMD(Lys-(OEG-gGlu)2-Oda)IHQQDFVNWLLAQKGKICNDWKHNIIQ-NH2 [Compound 13]”, at human GIPR, the “Selectivity Ratio (B/A)” value is 21,369.

For the compound “YAibEGTFISDYSIALDKIHQQDFVNWLLAQ(Lys-(ethylene glycol)2-C15 diacid)G-OH [Compound 31]”, the “Selectivity Ratio (B/A)” value on human GIPR worked out at 83090.

With “YAibEGTFISDYSIELEK(Lys-(ethylene glycol)2-C15 diacid)AQRAFVEWLLAQGPSSGAPPPS-NH2 [Compound 23]”, the “Selectivity Ratio (B/A)” value on human GIPR stood at 3364.

Regarding “YAibEGTFISDYS(Lys-(ethylene glycol)2-C15 diacid)ALDKIHQQDFVNWLLAQRG-OH [Compound 32]”, on human GIPR, the “Selectivity Ratio (B/A)” value amounted to 83090.

Regarding “YAibEGTFISDYSIALDKIHQQ(Lys-(ethylene glycol)2-C15 diacid)FVNWLLAQRPSSGAPPPS-NH2 [Compound 29]”, on human GIPR, the “Selectivity Ratio (B/A)” value was >100,000.

Broadly, the EC50 is the concentration that produces a half-maximal response. On to `CC[C@H](C)[C@H](NC(=O)[C@H](CO)NC(=O)[C@H](Cc1ccc(O)cc1)NC(=O)[C@H](CC(=O)O)NC(=O)[C@H](CO)NC(=O)[C@@H](NC(=O)[C@H](Cc1ccccc1)NC(=O)[C@@H](NC(=O)CNC(=O)[C@H](CCC(=O)O)NC(=O)[C@@H](C)NC(=O)[C@@H](N)Cc1ccc(O)cc1)[C@@H](C)O)[C@@H](C)CC)C(=O)N[C@@H](C)C(=O)N[C@@H](CCSC)C(=O)N[C@@H](CC(=O)O)C(=O)N[C@@H](CCCCN)C(=O)N[C@H](C(=O)N[C@@H](Cc1c[nH]cn1)C(=O)N[C@@H](CCC(N)=O)C(=O)N[C@@H](CCC(N)=O)C(=O)N[C@@H](CC(=O)O)C(=O)N[C@@H](Cc1ccccc1)C(=O)N[C@H](C(=O)N[C@@H](CC(N)=O)C(=O)N[C@@H](Cc1c[nH]c2ccccc12)C(=O)N[C@@H](CC(C)C)C(=O)N[C@@H](CC(C)C)C(=O)N[C@@H](C)C(=O)N[C@@H](CCC(N)=O)C(=O)N[C@@H](CCCCN)C(=O)NCC(=O)N[C@@H](CCCCN)C(=O)N[C@@H](CCCCN)C(=O)N[C@@H](CC(N)=O)C(=O)N[C@@H](CC(=O)O)C(=O)N[C@@H](Cc1c[nH]c2ccccc12)C(=O)N[C@@H](CCCCN)C(=O)N[C@@H](Cc1c[nH]cn1)C(=O)N[C@@H](CC(N)=O)C(=O)N[C@H](C(=O)N[C@H](C(=O)N[C@@H](CCC(N)=O)C(N)=O)[C@@H](C)CC)[C@@H](C)CC)C(C)C)[C@@H](C)CC` [Compound 14], for which, at human GIPR, the “Selectivity Ratio (B/A)” value is listed as >100,000. The EC50 at human GIPR (hGIPR/CRE-LUC/CHO-K1 cells, 4 h incubation, read-out: GIPR EC50 nM (A)) was 0.001 nM.
